The text below walks through data of a melting point compilation (Tetko et al.; mined from patent text by program, amines drawn as free bases though some values may be those of a salt).

Consider `CCn1nc(-c2ccccc2)c(C(C)=O)c(Nc2cccc(Cl)c2)c1=O`, for which the melting point lay in the range of 189 to 191 °C.
Compound `CC(=O)C(C)Oc1ccc2[nH]c(C)c(C(=O)OCc3ccccc3)c2c1` (stereo not given) yielded a melting point of 94 to 98 °C.
The figure for `NP(N)(=O)Nc1ccccc1[N+](=O)[O-]` is 200 °C.
Regarding `CCc1ncccc1NC(=NC#N)NC(NC(=O)Cc1ccc(Cl)cc1)C(C)(C)C` (stereo not given), the melting point lay in the range of 112 to 114 °C.
`Fc1ccc2[nH]c3c(c2c1)Cc1ccccc1-3`: the melting point was 225 to 227 °C.
The figure for `O=C(O)c1cc(Cl)ccc1SSc1ccc(Cl)cc1C(=O)O` is 320 to 324 °C; for `COC=C1C(=O)NC(=O)c2ccccc21` it is 260 to 261 °C; for `OC(CNc1ccccc1)c1cc(C(F)(F)F)nc2c(C(F)(F)F)cccc12` (stereo not given) it is 121 to 122 °C.
Under `CCCCc1ccc(C(=O)Oc2ccc(C(=O)O)cc2)cc1C12CC3CC(CC(C3)C1)C2` stands 205 to 206 °C.
`COc1ccc(C2CC3(C)C(CC45OCCOC43OCCO5)C3CC(C)C4(O)CCCCC4C23)cc1` (stereo not given) showed a melting point of 168 to 169 °C.
Regarding `N#Cc1ccccc1N1CCN(CC(=O)Nc2ccccc2)CC1`, the melting point lay in the range of 137 to 138 °C.
Under `CCC(CC)n1nnc2c(Nc3ccc(C(C)C)cc3Br)nc(C)cc21` stands 144 to 145 °C; under `O=C(O)c1cn(CCc2cccc(Cl)c2)c2cc(C3CC3)nn2c1=O`, 230 to 235 °C.
Take `COc1ccc([N+](=O)[O-])c2c1OCC(C(=O)Nc1ccc(N3CCOCC3)cc1)C2` (stereo not given): the melting point fell in the range of 238 to 240 °C.
The figure for `CCOC(=O)c1cn(Cc2ccc(Oc3ccccc3)cc2)nc1OCc1nc(-c2ccccc2)oc1C` is 96 to 97 °C; for `CCc1c(C(=O)c2cccc(Cl)c2Cl)c2cccc(Br)c2n1CCCN(C)S(C)(=O)=O` it is 111 °C.
`CCN(CC)C1=NS(=O)(=O)c2cccc(OC(F)F)c21` yielded a melting point of 93 to 94 °C.
Under `CCC1(C)CC(NC(=O)c2ccccc2)C(C)C(C)(CC)N1OC(C)c1ccccc1` (stereo not given) stands 112 to 147 °C.
The compound `CC(C)(CO)Nc1nc(Nc2cccc(NS(C)(=O)=O)c2)nc2[nH]cnc12` had a melting point of 215 to 218 °C.
In turn, `CSc1c(C)[nH]c2cccc([N+](=O)[O-])c12` registered a melting point of 148 to 150 °C.
Compound `COC(=O)C1=C(OC)c2ccccc2S(=O)(=O)N1C` came in with a melting point of 79 to 80 °C.
`CC(=O)Oc1ccc(CC(=O)Nc2ncc(-c3ccc(OC(C)=O)cc3)nc2Cc2ccccc2)cc1` had a melting point of 225 to 227 °C.
Turning to `O=C(O)c1cccc(-c2nc3sccn3c2-c2ccnc(N[C@@H]3CCCN(S(=O)(=O)c4ccc(Cl)cc4)C3)n2)c1`, the melting point lay in the range of 190 to 195 °C.
The compound `COC12CC(C)(c3nc(-c4cncc(Br)c4)no3)CN(C)C1Cc1cn(C)c3cccc2c13` (stereo not given) had a melting point of 185 to 189 °C.
The figure for `C/C(=C(\C#N)C(N)=S)N1CCCCCCC1` is 149 to 150 °C; for `Cc1sc2nc(N(CCO)CCO)nc(NCc3ccccn3)c2c1Br` it is 152 °C.
The figure for `N#Cc1c(I)c(C(=O)NCCO)c(I)c(C(=O)NCCO)c1I` is 300 °C; for `CCCOc1ccccc1-c1nc2nc(N(CCC)CCC)ncc2c(=O)[nH]1` it is 123 to 124 °C.
Compound `N#Cc1ccc(-c2ccc(-c3ccc(C#N)nc3)o2)cc1` registered a melting point of 276 to 277 °C.
In the case of `CCC1(C)OC(c2ccc(S(C)(=O)=O)cc2)=C(c2ccc(C(C)(C)C)cc2)C1=O` (stereo not given), the melting point turned out to be 45 °C.
The figure for `COc1ccccc1NC1c2cc(NC(=O)CC(C)(C)C)c(C)c(C)c2OC1(C)C` (stereo not given) is 184 to 185 °C; for `C=CCSc1cc(C(=O)O)cc(S(N)(=O)=O)c1-c1ccccc1` it is 78 to 81 °C.
Take `CCCCCC(C)C(C)c1cc(O)c2c(c1)OC(C)(C)C1=C2CN(CC(=O)N(C)C)CC1` (stereo not given): the melting point was in the range of 122 to 124 °C.
Under `CCCCCCNC1=NS(=O)(=O)c2ccc(Cl)cc2N1` stands 244 to 247 °C; under `O=C(O)c1cc(Cl)cc2ccoc12`, 212 to 215 °C.
The figure for `O=CC1C(c2ccc(F)cc2)CCC12C=Cc1ccccc12` (stereo not given) is 115 to 118 °C; for `COc1cccc2c1nc(C(F)F)n2-c1nc(N2CCNCC2)nc(N2CC3CCC(C2)O3)n1` it is 221 to 223 °C.
Take `N#Cc1ccc(OCCCCCCOc2cccc(-c3cc4ccc(C#N)cc4o3)c2)cc1`: the melting point lay within 125 to 127 °C.
The figure for `Cc1cc(-c2ccc(C(F)(F)F)cc2)nc(-c2ccnc(-c3cccc(S(N)(=O)=O)c3)n2)c1` is greater than 250 °C.
The figure for `COC(=O)c1ccc(Cn2ncc3ccc(N)cc32)cc1` is 131 to 132 °C; for `OC1CCN(c2ccncc2)CC1` it is 155 to 156 °C; for `CN(C)C(=O)NNC(=O)c1ccccc1` it is 199 to 201 °C.
Under `CCN(CC)CCNC(=O)c1cc(Cl)c(N)cc1OCCOC` stands 108 to 110 °C.
Turning to `CN1CCN(c2cc3c(cc2F)c(=O)c(C(=O)O)cn3NCC=O)CC1`, the melting point fell in the range of 252 to 253 °C.
`C[C@H](NC(=O)c1c(CBr)c(-c2ccccc2)nc2ccccc12)C1CCCCC1`: the melting point lay in the range of 182 to 184 °C.
In the case of `CCC(=O)c1cc2c(s1)CCC1CC(=O)N(c3ccc(Cl)cc3)N=C21` (stereo not given), the melting point lay within 135 to 138 °C.
Under `Cc1ccc(C(=O)c2cccc(S(=O)(=O)O)n2)cc1` stands greater than 300 °C.
Under `CSC1CC(=O)N1CC(=O)O` (single isomer, unassigned; (+)) stands 117 to 118 °C.
The figure for `CCCCCCCCCCCCCCCCCCCCC(=S)NCCCN(CC)CC` is 61 °C; for `N#CCC(=N)c1cccc(F)c1` it is 67 to 68 °C.
As for `CC1=NN(C)C(=O)C1(Br)C(=O)c1ccc(Cl)cc1Cl` (stereo not given), the melting point lay in the range of 89 to 90 °C.
Under `COc1ccc2c(c1O)C(=O)O[C@@H]2[C@H]1c2c(cc3c(c2OC)OCO3)CCN1C` stands 142 to 143 °C; under `OCC1OC(n2cnc3c(Nc4ccc(Cl)cc4)ccnc32)C(O)C1O` (stereo not given), 215 °C.
The figure for `COC(=O)CCc1conc1-c1ccc(Cl)c(F)c1` is 57 to 58 °C; for `Cc1c(C#N)n(-c2ccc(Cl)cc2)c(=O)n1C` it is 138 to 140 °C.
The figure for `COC(=O)c1ccc(C(=O)c2ccc(C(=O)OC)cc2)cc1` is 228 to 230 °C; for `CCCCc1c(F)c(F)c(NN)c(F)c1F` it is 80 to 81 °C.
Compound `O=CNC1Cc2cccc3c2N(CCC3)C1=O` (stereo not given) had a melting point of 140 to 143 °C.
Compound `CCCCCCCCCCCCCCc1c[nH]c(C(=O)OC)c1` yielded a melting point of 80 to 82 °C.
Regarding `CC(=O)c1cccc(-n2ccnc2)c1`, the melting point was 69 to 71 °C.
As for `Cn1nc(N2CCNCC2)c2ccccc21`, the melting point is 100 to 102 °C.
On to `COc1ccc(-c2oncc2CCCO)cc1OC`, for which the melting point fell in the range of 55 to 56 °C.
For `CCSc1nc2cccc(C(=O)OC)c2n1Cc1ccc(-c2ccccc2-c2nc(=O)o[nH]2)cc1`, the melting point lay within 210 to 211 °C.
In turn, `CC(=O)NCc1ccc2ccn(C3CCN(CCc4ccc(Cl)cc4)CC3)c2c1` showed a melting point of 148 to 149 °C.
The figure for `Cc1cc(O)ccc1-c1noc2cc(O)ccc12` is 229 to 231 °C.

As a reminder, the melting point is the temperature, or range, at which the solid turns liquid.
